Data: patent US11530181B2, “IL-6 inhibitors and methods of treatment” (University of Florida Research Foundation, Incorporated, priority 2018, dated 2022)

Tests used:
[1] = system: IL-6 induced STAT3 phosphorylation; assay: Western blot, IL-6 induced STAT3 phosphorylation in MCF7; format: cell-based, human
Procedure: Cells were harvested and lysed in cold radioimmunoprecipitation assay (RIPA) lysis buffer containing proteasome inhibitor cocktail and phosphatase inhibitor cocktail. The protein concentrations were determined using the BCA Protein Assay kit. After adding the loading buffer and boiling at 95° C. for 10 minutes, equivalent amounts of proteins were loaded on and separated by SDS-PAGE, and then were transferred to PVDF membranes. Membranes were probed with primary antibodies (1:1000) against phospho-STAT3 (Tyr705), STAT3, phospho-STAT1 (Tyr701), STAT1, phospho-STAT6 (Tyr 641), STAT6, and GAPDH, respectively, and horseradish peroxidase (HRP)-conjugated secondary antibody (1:10000) (Cell Signaling Technology, Beverly, Mass.). Membranes were analyzed using Enhanced Chemiluminescence Plus reagents and either scanned with the Storm Scanner (Amersham Pharmacia Biotech, Inc., Piscataway, N.J.) or imaged with ChemiDoc MP imaging system (Bio-Rad, Hercules, Calif.). For cytokine induction of STAT3 phosphorylation, MCF-7 breast cancer cells were seeded in 10 cm plates (1 million cells per plate) and allowed to adhere overnight followed by serum-starvation. […] After designated hours, LLM-418 treated and untreated cells were stimulated by IL-6, LIF, and OSM (50 ng/mL). The cells were harvested after 30 minutes and analyzed by Western blot.
MCF7 breast cancer cells were seeded in 10 cm plates (1 million cells per plate) and allowed to adhere overnight. The following day, the cells were serum-starved. The cells were then left untreated or treated with LLM4 (5-20 μM). After designated hours, the LLM4 treated and untreated cells were stimulated by IL-6, LIF, OSM, CNTF, CT-1, IL-11, IL-4 or INF-γ (50 ng/ml). The cells were harvested after 30 minutes and analyzed by western blotting.

[2] = system: multiple myeloma cell line U266; assay: Cell viability assay, U266; format: cell-based, human; settings: for IC50: Homo sapiens, U-266, U266, 72 h; for inhibitory effect compared to parent compound LLM4: U266, 25 μM, 48 and 72 hours
Procedure: (§1) Cell viability was evaluated by using the MTT assay in triple replicates in one experiment and repeated for three times. Cancer cells were seeded in 96-well plates at a density of 3,000 cells per well. The cells were incubated at 37° C. for a period of 24 hours. Escalating concentrations of IL-6/gp130 inhibitors were added in triplicate to the plates in the presence of 10% FBS. After incubation for 48 or 72 hours, a stock solution of MTT (0.5 mg/ml) was then added to each well containing the treated cells, followed by incubation at 37° C. for 3 h. After removal of medium, the MTT dye was dissolved with spectrophotometric grade DMSO and the absorbance was read at 570 nm. The IC50 value is determined by interpolation based on the absorbance value halfway between positive and negative controls. In the experiment of LLM4 showing higher efficacy in cancer cells with higher levels of IL-6, instead of using medium with 10% FBS, DMEM with 0% FBS was used in order to eliminate the influence of trace amounts of growth factors and cytokines in FBS.
It was reported in multiple myeloma cell line U266 that IL-6 is also elevated and of great importance for cancer progression [Jernberg W, Pettersson M, Carlsson M, et al. Increase in interleukin 6 (IL-6) and IL-6 receptor expression in a human multiple myeloma cell line, U-266, during long-term in vitro culture and the development of a possible autocrine IL-6 loop 1. Leukemia. 1992, 4, 310-318]. These novel IL-6/gp130 inhibitors were tested in U266 cells at a concentration of 25 μM for an incubation time of 48 and 72 hours. MDL16 and LLM4 were used as control compounds.

[3] = system: BxPC-3 pancreatic cancer cell line; assay: MTT cell viability assay, BxPC-3; format: cell-based, human; settings: for inhibitory effect compared to parent compound LLM4: BxPC-3, 25 μM, 48 hours; for IC50: Homo sapiens
Procedure: (§2) Human breast cancer cell lines MCF7, MDA-MB-231 and SUM159 were maintained in Dulbecco's modified Eagle medium (DMEM). Human pancreatic cancer cell line BxPC-3 was maintained in RPMI 1640 medium. Human pancreatic cancer cell line Capan-1 was maintained in Iscove's Modified Dulbecco's Medium (IMEM). All media were supplemented with 10% FBS and 1% penicillin/streptomycin, and cells were incubated in a humidified 37° C. incubator with 5% CO2. PE/CA-PJ49 cell line was purchased from external sources and maintained according to manufacturer's protocol.
as §1

[4] = system: SUM159 breast cancer cell line; assay: MTT cell viability assay, SUM159; format: cell-based, human; settings: for IC50: Homo sapiens; for inhibitory effect compared to parent compound LLM4: SUM159, 25 μM, 48 hours
Procedure: as §2
as §1, with “controls.” for “controls. In the experiment of LLM4 showing higher efficacy in cancer cells with higher levels of IL-6, instead of using medium with 10% FBS, DMEM with 0% FBS was used in order to eliminate the influence of trace amounts of growth factors and cytokines in FBS.”

PE/CA-PJ49 cell line = assay: Inhibitory activity in PTPRD mutant cell line PE/CA-PJ49; format: cell-based; settings: PE/CA-PJ49, 48 h
Procedure: as §2, §1
Protein tyrosine […] receptor type D (PTPRD) is reported to serve as a tumor suppressor in various human cancers [Peyser et. al, PLoS One (2015) 10(8)]. PTPRD mutation is also known to be associated with increased STAT3 expression [Peyser et. al, PLoS One (2015) 10(8)]. Table 8 captures the inhibitory activities of various compounds in the PTPRD mutant cell line, PE/CA-PJ49.

[5] = MCF7, 1-4 μM, 5 h, IL-6 50 ng/ml

SMILES | inhibition of IL-6 induced STAT3 phosphorylation ([1]; MCF7, 4 μM, 2, 3 and 4 hours) | inhibition of IL-6 induced STAT3 phosphorylation [1, 5] | IC50 [2] [µM] | inhibitory effect compared to parent compound LLM4 [2] | inhibitory effect compared to parent compound LLM4 [3] | IC50 ([3]; BXPC-3, 48 h) [µM] | IC50 ([3]; BxPC-3, Table 7) [µM] | IC50 ([4]; SUM159, 48 h) [µM] | IC50 ([4]; SUM159, SUM159, Table 7) [µM] | inhibitory effect compared to parent compound LLM4 [4] | IC50 (PE/CA-PJ49 cell line) [µM] | inhibition of IL-6 induced STAT3 phosphorylation ([1]; MCF7, 15 μM, 2, 3 and 4 hours) | inhibition of STAT3 phosphorylation induced by IL-6 ([1]; MCF7, 20 μM) | amount of P-STAT3 stimulated by IL-6 ([1]; MCF7, 5-20 μM, 5 h, IL-6 50 ng/ml, western blot) | phosphorylation of STAT3 induced by IL-6 ([1]; MCF7, treatment with 10 LLM4) | IC50 ([3]; BxPC-3, text b401) [µM] | IC50 ([4]; SUM159, SUM159 human breast cancer cell line, MTT) [µM]
O=C(Nc1ccccc1-c1ccn[nH]1)c1ccc(OCCN2CCCCC2)cc1 [LLM418, N-(2-(1H-pyrazol-5-yl)phenyl)-4-(2-(piperidin-1-yl)ethoxy)benzamide] | inhibit IL-6 induced STAT3 phosphorylation quite effectively | inhibited STAT3 phosphorylation stimulated by IL-6 in MCF7 cells in a dose dependent manner | 1.2 | greater inhibitory effects | greater inhibitory effect | 1.2 | 1.2 | 1.7 | 1.7 | greater inhibitory effect | 1.79 ± 0.48 | – | – | – | – | – | –
O=C(Nc1cccc(OCCN2CCCCC2)c1)Nc1cccc(-c2ccn[nH]2)c1 [LLM414, 1-(3-(1H-pyrazol-5-yl)phenyl)-3-(3-(2-(piperidin-1-yl)ethoxy)phenyl)urea] | – | inhibited STAT3 phosphorylation stimulated by IL-6 in MCF7 cells in a dose dependent manner | 1.9 | greater inhibitory effects | greater inhibitory effect | 8.3 | 8.3 | 2.8 | 2.8 | greater inhibitory effect | 3.41 ± 0.99 | – | – | – | – | – | –
O=C(Nc1cc(F)ccc1-n1cccc1)c1ccc(OCCCN2CCCCC2)cc1 [LLM4, N-(5-fluoro-2-(1H-pyrrol-1-yl)phenyl)-4-(3-(piperidin-1-yl)propoxy)benzamide] | – | – | 10.9 ± 1.5 | – | – | 10.9 ± 5.7 | – | 14.5 ± 3.5 | – | – | – | inhibit IL-6 induced STAT3 phosphorylation quite effectively | almost complete inhibition | decreased with increasing concentrations | Significant reduction | 3.9 | 17 ± 5.5
